Source: ChEMBL document CHEMBL1201862, “PubChem BioAssay data set” (2004)
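In this assay, cells in 96-well plates receive the compound at five concentrations for 48 hours. Endpoints are linearly interpolated between the surrounding concentrations. Here, GI50 denotes the concentration required for 50% inhibition of growth.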 Calls of active or inactive are those of the source. Cut-off read from the data, not from the text of the source: active = GI50 up to about 1.1 µM and inactive = higher.

Experiments:
Test in all cases: NCI anticancer screen, dose series, 48 h
KM-20L2 = system: KM-20L2
SNB-78 = system: SNB-78
COLO 205 = system: COLO 205
CCRF-CEM = system: CCRF-CEM
TK-10 = system: TK-10
KM12 = system: KM12
U-251 = system: U-251
SK-MEL-2 = system: SK-MEL-2
K562 = system: K562
RXF 631 = system: RXF 631
OVCAR-3 = system: OVCAR-3
OVCAR-5 = system: OVCAR-5
HCC 2998 = system: HCC 2998
XF498 = system: XF498
UO-31 = system: UO-31
OVCAR-8 = system: OVCAR-8
ACHN = system: ACHN
NCI-H522 = system: NCI-H522
HOP-92 = system: HOP-92
RXF 393 = system: RXF 393
DMS-114 = system: DMS-114
SK-OV-3 = system: SK-OV-3
SW-620 = system: SW-620
SK-MEL-5 = system: SK-MEL-5
HT-29 = system: HT-29
CAKI-1 = system: CAKI-1
SK-MEL-28 = system: SK-MEL-28
786-0 = system: 786-0
LXFL 529 = system: LXFL 529
IGROV-1 = system: IGROV-1
SF-539 = system: SF-539
SR = system: SR
OVCAR-4 = system: OVCAR-4
A549 = system: A549
EKVX = system: EKVX
M19-MEL = system: M19-MEL
UACC-62 = system: UACC-62
Malme-3M = system: Malme-3M
HCT-15 = system: HCT-15
SN12C = system: SN12C
NCI-H23 = system: NCI-H23
MOLT-4 = system: MOLT-4
DLD-1 = system: DLD-1
SF-268 = system: SF-268
M14 = system: M14
SF-295 = system: SF-295
SNB-19 = system: SNB-19
HL-60 = system: HL-60
HOP-18 = system: HOP-18
NCI-H460 = system: NCI-H460
LOX IMVI = system: LOX IMVI
RPMI-8226 = system: RPMI-8226
A498 = system: A498
DMS-273 = system: DMS-273
SNB-75 = system: SNB-75

## O=C1OC(c2ccccc2)=N/C1=C/C=C/c1ccco1
KM-20L2
  GI50: > 100 µM (inactive)
SNB-78
  GI50: > 100 µM (inactive)
COLO 205
  GI50: > 100 µM (inactive)
CCRF-CEM
  GI50: > 100 µM (inactive)
TK-10
  GI50: > 100 µM (inactive)
KM12
  GI50: > 100 µM (inactive)
U-251
  GI50: > 100 µM (inactive)
SK-MEL-2
  GI50: > 100 µM (inactive)
K562
  GI50: > 100 µM (inactive)
RXF 631
  GI50: > 100 µM (inactive)
OVCAR-3
  GI50: > 100 µM (inactive)
OVCAR-5
  GI50: > 100 µM (inactive)
HCC 2998
  GI50: > 100 µM (inactive)
XF498
  GI50: > 100 µM (inactive)
UO-31
  GI50: > 100 µM (inactive)
OVCAR-8
  GI50: > 100 µM (inactive)
ACHN
  GI50: > 100 µM (inactive)
NCI-H522
  GI50: > 100 µM (inactive)
HOP-92
  GI50: > 100 µM (inactive)
RXF 393
  GI50: > 100 µM (inactive)
DMS-114
  GI50: > 100 µM (inactive)
SK-OV-3
  GI50: > 100 µM (inactive)
SW-620
  GI50: > 100 µM (inactive)
SK-MEL-5
  GI50: > 100 µM (inactive)
HT-29
  GI50: > 100 µM (inactive)
CAKI-1
  GI50: > 100 µM (inactive)
SK-MEL-28
  GI50: > 100 µM (inactive)
786-0
  GI50: > 100 µM (inactive)
LXFL 529
  GI50: > 100 µM (inactive)
IGROV-1
  GI50: > 100 µM (inactive)
SF-539
  GI50: > 100 µM (inactive)
SR
  GI50: > 100 µM (inactive)
OVCAR-4
  GI50: > 100 µM (inactive)
A549
  GI50: > 100 µM (inactive)
EKVX
  GI50: > 100 µM (inactive)
M19-MEL
  GI50: > 100 µM (inactive)
UACC-62
  GI50: > 100 µM (inactive)
Malme-3M
  GI50: > 100 µM (inactive)
HCT-15
  GI50: > 100 µM
SN12C
  GI50: > 100 µM (inactive)
NCI-H23
  GI50: > 100 µM (inactive)
MOLT-4
  GI50: > 100 µM (inactive)
DLD-1
  GI50: > 100 µM (inactive)
SF-268
  GI50: > 100 µM (inactive)
M14
  GI50: > 100 µM (inactive)
SF-295
  GI50: > 100 µM (inactive)
SNB-19
  GI50: > 100 µM (inactive)

## CCCCCCCCSC(=O)NCCCC
KM-20L2
  GI50: 23.7 µM (inactive)
COLO 205
  GI50: 54.6 µM (inactive)
CCRF-CEM
  GI50: 28.2 µM (inactive)
TK-10
  GI50: 46.7 µM (inactive)
KM12
  GI50: 51.8 µM (inactive)
U-251
  GI50: 35.5 µM (inactive)
SK-MEL-2
  GI50: 17.7 µM (inactive)
K562
  GI50: 38.2 µM (inactive)
RXF 631
  GI50: 39.4 µM (inactive)
OVCAR-3
  GI50: 41.3 µM (inactive)
OVCAR-5
  GI50: 48.4 µM (inactive)
XF498
  GI50: 21.4 µM (inactive)
UO-31
  GI50: 19.6 µM (inactive)
HL-60
  GI50: 18.7 µM (inactive)
OVCAR-8
  GI50: 36.6 µM (inactive)
ACHN
  GI50: 34.7 µM (inactive)
HOP-18
  GI50: 94.6 µM (inactive)
NCI-H522
  GI50: 27.1 µM (inactive)
HOP-92
  GI50: 14.4 µM (inactive)
RXF 393
  GI50: 21.5 µM (inactive)
SK-OV-3
  GI50: > 100 µM (inactive)
SW-620
  GI50: 75.3 µM (inactive)
SK-MEL-5
  GI50: 22.2 µM (inactive)
HT-29
  GI50: 26.4 µM (inactive)
CAKI-1
  GI50: 36.1 µM (inactive)
SK-MEL-28
  GI50: 29 µM (inactive)
786-0
  GI50: 38.1 µM (inactive)
LXFL 529
  GI50: 37.8 µM (inactive)
IGROV-1
  GI50: > 100 µM (inactive)
NCI-H460
  GI50: 34 µM (inactive)
SF-539
  GI50: 74 µM (inactive)
OVCAR-4
  GI50: 33.5 µM (inactive)
A549
  GI50: 38.2 µM (inactive)
EKVX
  GI50: 27.8 µM (inactive)
M19-MEL
  GI50: 42.1 µM (inactive)
LOX IMVI
  GI50: 19.9 µM (inactive)
UACC-62
  GI50: 43 µM (inactive)
Malme-3M
  GI50: 24.5 µM (inactive)
HCT-15
  GI50: 27.2 µM
SN12C
  GI50: 33 µM (inactive)
NCI-H23
  GI50: 49.7 µM (inactive)
RPMI-8226
  GI50: 20.3 µM (inactive)
MOLT-4
  GI50: 23.2 µM (inactive)
DLD-1
  GI50: 35.8 µM (inactive)
SF-268
  GI50: 35.8 µM (inactive)
A498
  GI50: 54.1 µM (inactive)
DMS-273
  GI50: 35 µM (inactive)
SNB-75
  GI50: 24.6 µM (inactive)
M14
  GI50: 25.8 µM (inactive)
SF-295
  GI50: 38.5 µM (inactive)
SNB-19
  GI50: 34.6 µM (inactive)
